pIC50: −log10 of the molar value.
Key:
Type in all cases: functional, cell-based
[1] = tested on: A549; test: Antiproliferative activity against human A549 cells assessed as cell viability after 72 hrs by MTT assay; settings: A549, 72 h
[2] = tested on: HeLa; test: Antiproliferative activity against human HeLa cells assessed as cell viability after 72 hrs by MTT assay
[3] = tested on: CCRF-CEM; test: Antiproliferative activity against human CCRF-CEM cells assessed as cell viability after 72 hrs by MTT assay
[4] = tested on: MDA-MB-231; test: Antiproliferative activity against human MDA-MB-231 cells assessed as cell viability after 72 hrs by MTT assay; settings: MDA-MB-231, 72 h
[5] = tested on: Jurkat; test: Antiproliferative activity against human Jurkat cells assessed as cell viability after 72 hrs by MTT assay
[6] = tested on: MCF7; test: Antiproliferative activity against human MCF7 cells assessed as cell viability after 72 hrs by MTT assay; settings: MCF7, 72 h

Structure (SMILES)	pIC50 [1]	pIC50 [2]	pIC50 [3]	pIC50 [4]	pIC50 [5]	pIC50 [6]
CC(C)(C)OC(=O)n1cc(CNC(=S)Nc2cc(C(F)(F)F)cc(C(F)(F)F)c2)c2ccccc21	5.44	5.18	5.54	5.39	5.44	5.46
CO[C@H]1N(C(=O)OC(C)(C)C)c2ccccc2[C@@]12CN=C(Nc1ccc(C(F)(F)F)cc1)S2 (racemic)	4.61	4.49	5.14	4.54	5.03	4.58
CC(C)(C)OC(=O)n1cc(CNC(=S)Nc2ccccc2)c2ccccc21	5.18	4.69	4.04	4.55	5.51	6.14
CNC1=NCc2c([nH]c3ccccc23)S1	4.36	4.17	5.33	4.46	5.28	4.36
CON1c2ccccc2C2(CN=C(SC)S2)C1O (racemic)	4.00	4.00	4.00	4.00	4.00	4.00
CN(C1=NC[C@]2(S1)c1ccccc1N(C(=O)OC(C)(C)C)[C@@H]2O)c1ccccc1 (racemic)	< 4.00	< 4.00	4.19	< 4.00	5.28	5.57
CC(C)(C)OC(=O)n1cc(CNC(=S)N2CCOCC2)c2ccccc21	< 4.00	4.10	< 4.00	< 4.00	4.02	< 4.00
CO[C@@H]1N(C(=O)OC(C)(C)C)c2ccccc2[C@@]12CN=C(Nc1cc(C(F)(F)F)cc(C(F)(F)F)c1)S2 (racemic)	4.54	4.47	4.76	4.41	4.67	4.68
CO[C@@H]1N(C(=O)OC(C)(C)C)c2ccccc2[C@@]12CN=C(Nc1ccc(Br)cc1)S2 (racemic)	4.12	4.18	4.30	< 4.00	4.52	4.11
CO[C@H]1N(C(=O)OC(C)(C)C)c2ccccc2[C@@]12CN=C(Nc1ccc(Cl)cc1)S2 (racemic)	4.59	4.68	4.58	4.38	4.63	4.44
CO[C@H]1N(C(=O)OC(C)(C)C)c2ccccc2[C@@]12CN=C(N1CCCCC1)S2 (racemic)	4.27	4.26	4.58	4.21	4.60	4.28
CO[C@H]1N(C(=O)OC(C)(C)C)c2ccccc2[C@@]12CN=C(Nc1ccc(F)cc1)S2 (racemic)	4.52	4.54	4.57	4.52	4.72	4.52
CC(C)(C)OC(=O)n1cc(CNC(=S)Nc2ccc(Br)cc2)c2ccccc21	5.17	5.35	5.42	4.89	5.37	5.07
CO[C@H]1N(C(=O)OC(C)(C)C)c2ccccc2[C@@]12CN=C(NC1CCCCC1)S2 (racemic)	4.56	4.49	5.29	4.58	5.28	4.56
Cc1ccc(NC(=S)NCc2cn(C(=O)OC(C)(C)C)c3ccccc23)cc1	4.50	4.54	4.80	4.43	4.70	4.52
COc1ccc(NC2=NC[C@]3(S2)c2ccccc2N(C(=O)OC(C)(C)C)[C@@H]3OC)cc1 (racemic)	4.50	4.60	4.61	4.42	4.60	4.51
CO[C@@H]1N(C(=O)OC(C)(C)C)c2ccccc2[C@@]12CN=C(Nc1ccc(C)cc1)S2 (racemic)	4.52	4.64	4.72	4.45	5.05	4.50
CO[C@@H]1N(C(=O)OC(C)(C)C)c2ccccc2[C@@]12CN=C(SC)S2 (racemic)	4.02	4.11	4.38	4.01	4.36	4.00
CC(C)(C)OC(=O)n1cc(CNC(=S)Nc2ccc(F)cc2)c2ccccc21	4.61	4.97	4.92	4.65	4.70	4.56
c1ccc2c3c([nH]c2c1)SC(N1CCOCC1)=NC3	4.20	4.14	5.23	4.48	5.06	4.26
COc1ccc(NC(=S)NCc2cn(C(=O)OC(C)(C)C)c3ccccc23)cc1	< 4.00	4.47	4.66	< 4.00	4.52	4.04

Structure (SMILES)	pIC50 [1]	pIC50 [2]	pIC50 [3]	pIC50 [4]	pIC50 [5]	pIC50 [6]
CO[C@@H]1N(OC)c2ccccc2[C@@]12CN=C(SC)S2 (racemic)	–	–	–	–	4.36	4.19
c1ccc2c3c([nH]c2c1)SC(NC1CCCCC1)=NC3	4.26	4.19	5.41	4.51	5.28	4.19
CO[C@@H]1N(C(=O)OC(C)(C)C)c2ccccc2[C@@]12CN=C(Nc1ccc(F)cc1)S2 (racemic)	4.47	4.56	4.84	4.49	4.82	4.52
CO[C@@H]1N(C(=O)OC(C)(C)C)c2ccccc2[C@@]12CN=C(N(C)c1ccccc1)S2 (racemic)	4.54	4.49	4.58	4.56	4.59	4.55
CSC1=NC[C@]2(S1)c1ccccc1N(C(=O)OC(C)(C)C)[C@H]2O (racemic)	4.00	4.03	4.57	4.02	4.53	4.00
CN(C1=NC[C@]2(S1)c1ccccc1N(C(=O)OC(C)(C)C)[C@H]2O)c1ccccc1 (racemic)	4.54	4.65	4.64	4.49	4.67	4.52
CO[C@H]1N(C(=O)OC(C)(C)C)c2ccccc2[C@@]12CN=C(SC)S2 (racemic)	4.15	4.13	4.42	4.06	4.43	4.15
CC(C)(C)OC(=O)n1cc(CNC(=S)Nc2ccc(Cl)cc2)c2ccccc21	5.12	5.40	5.42	4.77	5.38	5.07
CNC1=NC[C@]2(S1)c1ccccc1N(C(=O)OC(C)(C)C)[C@H]2OC (racemic)	< 4.00	< 4.00	4.28	< 4.00	4.38	< 4.00
CC(C)(C)OC(=O)N1c2ccccc2[C@@]2(CN=C(Nc3ccccc3)S2)[C@H]1O (racemic)	4.13	4.14	4.48	4.19	4.32	4.56
CO[C@H]1N(C(=O)OC(C)(C)C)c2ccccc2[C@@]12CN=C(Nc1ccccc1)S2 (racemic)	4.53	4.50	4.91	4.39	5.00	5.21
CC(C)(C)OC(=O)n1cc(CNC(=S)Nc2ccc(C(F)(F)F)cc2)c2ccccc21	5.40	5.40	5.46	5.35	5.52	5.46
CSC(=S)NCc1cn(C(=O)OC(C)(C)C)c2ccccc12	4.67	4.77	4.71	4.67	4.75	4.64
CO[C@@H]1N(C(=O)OC(C)(C)C)c2ccccc2[C@@]12CN=C(Nc1ccccc1)S2 (racemic)	4.47	4.55	4.66	4.47	4.72	4.49
CC(C)(C)OC(=O)n1cc(CNC(=S)Nc2ccc([N+](=O)[O-])cc2)c2ccccc21	4.94	4.85	5.42	5.07	5.52	5.03
CO[C@@H]1N(C(=O)OC(C)(C)C)c2ccccc2[C@@]12CN=C(N1CCCCC1)S2 (racemic)	4.26	4.21	4.51	4.16	4.48	4.19
COn1cc(CNC(=S)SC)c2ccccc21 [1-METHOXYBRASSININ]	< 4.00	< 4.00	4.20	< 4.00	4.43	< 4.00
CO[C@H]1N(C(=O)OC(C)(C)C)c2ccccc2[C@@]12CN=C(N1CCOCC1)S2 (racemic)	< 4.00	4.26	4.29	4.16	4.50	4.15
CO[C@@H]1N(C(=O)OC(C)(C)C)c2ccccc2[C@@]12CN=C(Nc1ccc(Cl)cc1)S2 (racemic)	4.78	5.00	4.72	4.69	5.15	4.80
CO[C@@H]1N(C(=O)OC(C)(C)C)c2ccccc2[C@@]12CN=C(NC1CCCCC1)S2 (racemic)	4.42	4.44	4.54	4.38	4.57	4.43
CO[C@H]1N(C(=O)OC(C)(C)C)c2ccccc2[C@@]12CN=C(N(C)c1ccccc1)S2 (racemic)	–	5.09	4.74	4.50	5.23	5.82
